In PMC6021390, “A promiscuous cytochrome P450 aromatic O-demethylase for lignin bioconversion” (Nature Communications, 2018):
“Also recorded” adds a separate entry of the source. Like-named read-outs stand apart in the source and are kept apart here.

Assays:
[1] = biological target: T1, GcoAB (Amycolatopsis sp., UniProt P0DPQ7); test: Aldehyde product determination (tryptophan assay for formaldehyde, dehydrogenase assay for acetaldehyde) versus NADH consumed; type: biochemical, Amycolatopsis sp. ATCC 39116; design: GST (N, cleaved yes); made in house; host or cells: E. coli Rosetta 2 (DE3); settings: formaldehyde (acetaldehyde for guaethol), saturating substrate, 300 μM NADH, 0.2 μM GcoAB
T1 sequence (P0DPQ7 1-407): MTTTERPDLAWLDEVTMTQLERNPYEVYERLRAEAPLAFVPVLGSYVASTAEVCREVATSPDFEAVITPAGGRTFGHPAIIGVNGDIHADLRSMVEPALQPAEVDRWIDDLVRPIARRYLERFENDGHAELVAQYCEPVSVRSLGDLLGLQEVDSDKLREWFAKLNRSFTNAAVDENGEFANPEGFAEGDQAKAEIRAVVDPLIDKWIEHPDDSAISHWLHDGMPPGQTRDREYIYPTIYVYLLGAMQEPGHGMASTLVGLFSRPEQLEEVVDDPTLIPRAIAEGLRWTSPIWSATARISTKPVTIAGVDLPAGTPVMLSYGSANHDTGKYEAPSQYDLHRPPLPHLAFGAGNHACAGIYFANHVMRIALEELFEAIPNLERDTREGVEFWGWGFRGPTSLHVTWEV
T1 sequence (P0DPQ8 1-334 partner): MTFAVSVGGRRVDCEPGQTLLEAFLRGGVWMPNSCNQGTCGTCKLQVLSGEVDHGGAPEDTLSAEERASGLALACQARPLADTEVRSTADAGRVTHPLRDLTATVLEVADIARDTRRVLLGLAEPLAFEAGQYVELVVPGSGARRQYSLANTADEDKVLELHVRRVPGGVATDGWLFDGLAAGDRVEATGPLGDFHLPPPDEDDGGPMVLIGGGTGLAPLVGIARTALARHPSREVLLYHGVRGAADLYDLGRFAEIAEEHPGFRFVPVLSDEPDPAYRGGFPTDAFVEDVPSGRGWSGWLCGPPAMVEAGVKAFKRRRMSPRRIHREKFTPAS
From the text: For the quantification of formaldehyde (demethylation) or acetaldehyde (de-ethylation) production, the reaction was monitored via UV/vis or fluorescence (in the case of vanillin) using the same set of conditions as outlined above for specific activity determination. After eight minutes, aliquots of the sample were removed and carried onto the respective aldehyde detection assay. For reactions that produced formaldehyde (e.g., all substrates except guaethol), a colorimetric tryptophan assay was used, described previously. Briefly, 200 µL of the reaction was quenched by adding 200 µL of 0.1% tryptophan solution in 50% ethanol, 200 µL 90% sulfuric acid and 40 µL of 1% FeCl3. The solution was then incubated in a heating block for 90 min at 70 °C. After cooling, the absorbance was read at 575 nm and the [formaldehyde] calculated by comparing to a standard curve made with 0–320 µM formaldehyde. A reaction with just the assay components was treated in the same manner as the reaction samples and used as a baseline. Control reactions included everything but GcoA/B, catalase, and substrate. Reported values are the average of ≥3 measurements.
[Acetaldehyde] produced during the dealkylation of guaethol was also determined by using a colorimetric assay and a generated acetaldehyde standard curve. A kit from BioAssays was used. Briefly, 20 µL of the reacted sample was transferred to a 96-well plate and 80 µL of the working reagent, consisting of NAD/MTT and aldehyde dehydrogenase, was added. The reaction was incubated for 30 min at room temperature and the absorbance read at 565 nm. Aldehyde dehydrogenase and NAD react with acetaldehyde to produce acetic acid and NADH. […] Control reactions included samples without substrate and/or aldehyde dehydrogenase. Reported values are the average of ≥3 measurements.

[2] = biological target: T1, GcoAB; test: HPLC quantification of demethylated aromatic product versus NADH consumed; type: biochemical, Amycolatopsis sp. ATCC 39116; design: GST (N, cleaved yes); made in house; host or cells: E. coli Rosetta 2 (DE3); settings: saturating substrate, 300 μM NADH, 0.2 μM GcoAB
Experimental: Analyte analysis of samples was performed on an Agilent 1200 LC system (Agilent Technologies, Santa Clara, CA) equipped with a G1315A diode array detector (DAD). Each sample and standard was injected at a volume of 10 μL onto a Phenomenex Luna C18(2) column 5 μm, 4.6 × 150 mm column (Phenomenex, Torrance, CA). The column temperature was maintained at 30 °C and the buffers used to separate the analytes of interest was 0.05% acetic acid in water (A)/ acetonitrile (B). The separation was carried out using a gradient program of: (A) = 99% and (B) = 1% at time t = 0; (A) = 99% and (B) = 1% at time t = 5, (A) = 50% and (B) = 50% at t = 35 min; (A) = 1% and (B) = 99% at t = 35.01 min; (A) = 99% and (B) = 1% at t = 37.01 min; (A) = 99% and (B) = 1% at t = 47.00 min. The flow rate was held constant at 0.6 mL min^−1 resulting in a run time of 47 min. Calibration curve concentration for each analyte varied between the ranges of 2.5–200 µg L^−1. A DAD wavelength of 225 nm was used for analysis of the analytes of interest. […] A minimum of 3–5 calibration levels was used with an r^2 coefficient of 0.995 or better for each analyte and a check calibration standard (CCS) was analyzed every 10 samples to insure the integrity of the initial calibration.

[3] = biological target: T2, GcoA (Amycolatopsis sp., UniProt P0DPQ7); test: Determination of substrate dissociation constants with GcoA (UV/vis spectral shift titration; fluorescence quenching for vanillin); type: binding
T2 construct: GST (N, cleaved yes); made in house; host or cells: E. coli Rosetta 2 (DE3)
T2 sequence (P0DPQ7 1-407): T1 sequence (P0DPQ7 1-407)
Experimental: A total of 0–60 µM of substrate analogs, in 0.25 or 0.5 µM aliquots, were titrated into a cuvette containing 1–6 µM GcoA in 25 mM HEPES, 50 mM NaCl, pH 7.5. The spectrum after each substrate addition was recorded, beginning with no substrate bound. The solution reached equilibrium before the next addition. A difference spectrum was made to illustrate the shift from a low-spin aquo-heme complex to the high-spin substrate-bound complex (spectral shift from 417 nm to 388 nm). […] The absorbance at 388 nm was plotted as a function of [substrate], yielding a quadratic curve that was fit to Eq. (7) to determine the KD.7 ΔAbsobs=ΔAbsmax/2EtL0+Et+KD-L0+Et+KD^2-4Et*L0. Where L0, Et, KD, and ΔAbsmax are the ligand concentrations, total protein (subunit) concentration, the equilibrium dissociation constant, and the maximum Abs388–417 nm, respectively. Reported values are the average of 2 or more measurements.
Since the UV/vis spectra of vanillin and heme overlap, fluorescence quenching was monitored to determine the KD. […] Fluorescence emission intensity was followed upon titration of vanillin (0–350 µM) after equilibrium had been established. The % fluorescence quenched, Eq. (8), was plotted as a function of vanillin and fit to Eq. (7) above, replacing ΔAbsmax with ΔFluorescencemax.8 %Fquenched=Fmax-Fintensity/Fmax×100%.

[4] = test system: T3, LigX; test: Cited steady-state O-demethylation of 5,5'-dehydrodivanillate (10-500 uM) by 0.2 uM LigXa, 6 uM LigXc and 0.4 uM LigXd with 500 uM NADH in FE22 buffer, pH 6.0, 30 °C, air.; type: biochemical; settings: cited from earlier work
T3 construct: LigXa with LigXc and LigXd

[5] = biological target: T1, GcoAB; settings: for substrate classification with GcoAB: coupling of NADH consumption to demethylation; for binding or catalytic interaction with GcoA: screen of ten O-methylated aromatic compounds
Experimental: The demethylation of guaiacol and substrate analogs was continuously monitored under steady-state conditions. […] A total of 100 µg/mL catalase was added to each reaction to capture any H2O2 formed during the uncoupled reaction. […] A total of 20–300 µM guaiacol (preferred substrate) or an alternate substrate from a 2.5 mM stock dissolved in DMSO was added and the reaction was monitored via measurement of UV/vis spectra for several minutes. […] A plot of vi vs [guaiacol] was fit to Eq. (2) to obtain kcat, KM, and kcat/KM. For specific activity determination, the above method was used but with saturating (300 µM) guaiacol. […] Reported values are the average of ≥3 measurements and reported errors are standard deviations.
Reactions with vanillin were performed in the same manner described above.

[6] = test system: LigM; design: method as in ref 35 (a number printed in a supplementary file, which may have a reference list of its own: not looked up in the article's list); settings: 0.076 μM LigM, 5 mM H4-folate, pH 8.0, 30 °C, cited from earlier work
[7] = substrate: COc1ccccc1; test: purified protein, by the assay type; settings: other: 0.2 μM GcoAB, 300 μM NADH, pH 7.5, 25 °C, air
[8] = substrate: COc1ccccc1C; test: purified protein, by the assay type; settings: other: 0.2 μM GcoAB, 300 μM NADH, pH 7.5, 25 °C, air
[9] = substrate: COc1cccc(O)c1O; test: purified protein, by the assay type; settings: other: 0.2 μM GcoAB, 300 μM NADH, pH 7.5, 25 °C, air
[10] = substrate: COc1ccccc1O; test: purified protein, by the assay type; settings: other: 0.2 μM GcoAB, 300 μM NADH, pH 7.5, 25 °C, air
[11] = substrate: CCOc1ccccc1O; test: purified protein, by the assay type; settings: other: 0.2 μM GcoAB, 300 μM NADH, pH 7.5, 25 °C, air
[12] = 1–6 μM GcoA, 25 °C, 25 mM HEPES, 50 mM NaCl, pH 7.5, read-out: Compound KD

COc1ccccc1C [2-methylanisole]
Aldehyde produced per NADH consumed [1]: 0.90 ± 0.1 | Demethylated product: amount produced per NADH consumed [2]: 0.20 ± 0.04 | Kd [3, 12]: 1000 ± 100 nM

COc1cccc(O)c1O [3-methoxycatechol]
Aldehyde produced per NADH consumed [1]: 0.90 ± 0.04 | Demethylated product: amount produced per NADH consumed [2]: 0.97 ± 0.002 | Kd [3, 12]: 3700 ± 100 nM

COc1cc(C(=O)O)cc(-c2cc(C(=O)O)cc(OC)c2O)c1O [5,5'-dehydrodivanillate]
Km [4]: 64 µM

COc1ccccc1 [Anisole]
Aldehyde produced per NADH consumed [1]: 1.1 ± 0.01 | Demethylated product: amount produced per NADH consumed [2]: 0.62 ± 0.1 | Kd [3, 12]: 1700 ± 200 nM

CCOc1ccccc1O [Guaethol]
Aldehyde produced per NADH consumed [1]: 1.5 ± 0.14 | Demethylated product: amount produced per NADH consumed [2]: 1.4 ± 0.3 | Kd [3, 12]: 70 ± 30 nM | reduction in kcat compared to guaiacol [5]: almost fivefold reduction

COc1ccccc1O [Guaiacol, 2-methoxyphenol]
Aldehyde produced per NADH consumed [1]: 1.2 ± 0.15 | Demethylated product: amount produced per NADH consumed [2]: 1.2 ± 0.3 | Kd [3, 12]: 6 ± 2 nM | Kd ([3]; binding to GcoA, read-out: KD): 6 nM | specific activity ([5]; 300 μM guaiacol, 0.2 μM GcoA/B, 300 μM NADH, pH 7.5, 25 °C): 4.6 mM NADH sec-1 [mM GcoA]-1 | kcat ([5]; Supplementary Figure 20, 0.2 μM GcoA/B, 300 μM NADH, ambient O2, pH 7.5, 25 °C): 6.8 ± 0.5 s⁻¹ | kcat ([5]; Supplementary Table 4, 0.2 μM GcoA/B, 300 μM NADH, 5-300 μM guaiacol, pH 7.5, 25 °C, air): 6.8 ± 0.5 s⁻¹

COc1cccc(OC)c1O [Syringol]
Demethylated product: amount produced per NADH consumed [2]: 0.21 ± 0.002 | Kd [3, 12]: 2800 ± 400 nM | substrate classification with GcoAB [5]: partial substrate, partial uncoupler

COc1cc(C=O)ccc1O [Vanillin]
Aldehyde produced per NADH consumed [1]: 0.40 ± 0.04 | Aldehyde produced per NADH consumed ([1]; listed as vanillin): less than stoichiometric amounts of formaldehyde | Demethylated product: amount produced per NADH consumed [2]: 0.20 ± 0.01 | Kd [3]: 37000 ± 3000 nM | substrate classification with GcoAB [5]: partial substrate, partial uncoupler

COc1cc(/C=C/C(=O)O)ccc1O [ferulate]
binding or catalytic interaction with GcoA [5]: no detectable binding or catalytic interaction; also recorded: preclude binding and/or demethylation

COc1cc(C(=O)O)ccc1O [vanillate]
Km [6]: 630 ± 80 µM | kcat ([6]; vanillate 0.1-5 mM, 100 mM Tris, air): 5.8 ± 0.25 s⁻¹ | binding or catalytic interaction with GcoA [5]: no detectable binding or catalytic interaction; also recorded: preclude binding and/or demethylation

COc1ccccc1OC [veratrole]
substrate classification with GcoAB [5]: non-substrate/non-binder | binding or catalytic interaction with GcoA [5]: no detectable binding or catalytic interaction

B1: GcoAB (Amycolatopsis sp. ATCC 39116) (protein)
chain: T1 sequence (P0DPQ7 1-407)
Km [7]: 43 ± 4 µM | kcat [7]: 3.5 ± 0.2 s⁻¹ | kcat/Km [7]: 82000 ± 8000 M⁻¹ s⁻¹ | Km [8]: 27 ± 3 µM | kcat [8]: 4.6 ± 0.1 s⁻¹ | kcat/Km [8]: 170000 ± 20000 M⁻¹ s⁻¹ | Km [9]: 30 ± 3 µM | kcat [9]: 2.1 ± 0.05 s⁻¹ | kcat/Km [9]: 75000 ± 7000 M⁻¹ s⁻¹ | Km [10]: 60 ± 10 µM | kcat [10]: 6.8 ± 0.5 s⁻¹ | kcat/Km [10]: 110000 ± 20000 M⁻¹ s⁻¹ | Km [11]: 15 ± 4 µM | kcat [11]: 1.4 ± 0.09 s⁻¹ | kcat/Km [11]: 100000 ± 20000 M⁻¹ s⁻¹
